This note sets out measurements from US9968566B2, “Pharmaceutical composition for prophylaxis and/or treatment of corneal and conjunctival diseases or presbyopia containing stilbene compound as active ingredient” (KEIO UNIVERSITY, priority 2014, dated 2018).

A short description of data set [1]: Electron spin resonance (ESR) measurement test, amount of tyrosine radical. In kind it is biochemical. To be noted: 5 μM, 50 μM and 500 μM added to standard solution; activity order R<DR<DHR. The procedure: (§1) Resveratrol (R), as well as dimethyl resveratrol (DR) and dimethylhydroxy resveratrol (DHR), which are compounds of the present invention, were added to radicals serving as standard substances, and the amounts of remaining tyrosine radicals and hydroxyl radicals were assessed. Specifically, a standard solution comprising a 50 mM NaPi buffer (pH 7.4), 10 mM DMPO, 1.6 mM myoglobin, and 1 mM H2O2 was prepared using myoglobin as a tyrosine radical. Further, a standard solution comprising a 50 mM NaPi buffer (pH 7.4), 10 mM DMPO, 0.1 mM Fe^2+-EDTA, and 1 mM H2O2 was prepared using Fe^2+-EDTA as a hydroxyl radical. […] The ESR was set as follows: microwave power: 10 mW; adjusted frequency: 100 KHz; adjusted magnetic field: 0.1 G; receiver gain: 1000; and time constant: 0.3 s. FIGS. 1(A) and 1(B) show the results.

Data set [2] in a line: Electron spin resonance (ESR) measurement test, amount of hydroxyl radical. To be noted: 5 μM, 50 μM and 500 μM added to standard solution; activity order R<DR<DHR. In kind it is biochemical. The procedure: as §1
Data set [3] concerns keratoconjunctival epithelial damage caused by dry eye. Put plainly: Therapeutic efficacy test using smoking rat (Example 3): tear volume and fluorescein staining score. Conditions: smoking rats, 300 μM PBS solution, 5 μL instilled 4 times per day for 11 days; for tear volume (cotton thread test, length of wet portion): smoking group 10.0±5.0, non-smoking 14.0±9.1. Format: in vivo, Sprague-Dawley rats. The procedure: In this experiment, both eyes of each animal were used. The same drug solution was administered to both eyes of each animal, and a comparison was made among groups.
Six-week-old male Sprague-Dawley rats were subjected to smoking treatment to develop dry-eye, presbyopia models.
Specifically, a treatment in which mainstream smoke (300 mL) was added to a rat-containing chamber 6 times at 30-minute intervals was performed for 12 days to induce keratoconjunctival epithelial damage. […] Each group consisted of 4 animals (8 eyes).
After the 11-day smoking treatment, the body weight, tear volume, fluorescent staining score, and crystalline lens hardness were measured.
To determine the tear volume, tears accumulated in the cornea of rat were measured in accordance with the cotton thread test. Specifically, after the rats were anesthetized with ocular instillation of oxybuprocaine hydrochloride, a cotton thread was inserted between the palpebra and eyeball for 60 seconds, and tears were collected. The tear volume was assessed by measuring the length (mm) of the wet portion in the cotton thread.
After the completion of ocular instillation, a damaged portion in corneal epithelium was stained with a fluorescent dye (fluorescein). Then, the degree of corneal epithelial damage was assessed based on the following criteria by scoring each section of the entire cornea, which was divided into a total of 9 sections, i.e., upper, middle, and lower, and left, center, and right sections, and calculating the total value. Thereafter, the score values were compared among the groups for analysis. For statistical analysis, a significant difference test was performed by using the Dunnett method in terms of each group with respect to the smoking group. For unbiased evaluation, the content of the drug solution administered to each group was blinded from the initiation of ocular instillation to the scoring of the corneal epithelial damage, and collated after scoring.
Evaluation Criteria for Scoring of Fluorescein Staining of Corneal Epithelium
• 0: not stained (no punctate fluorescence) • 1: weak punctate fluorescence • 2: relatively intense punctate fluorescence • 3: strong punctate fluorescence The crystalline lens hardness was measured by combining an electronic weighing scale and height gauge. A crystalline lens whose minor axis length had been previously measured was placed on an electronic weighing scale, and the weight was set to 0. The handle of a height gauge was used above the crystalline lens to allow the end portion to be in contact with the crystalline lens. Further using the handle, the end portion was lowered about 5 to 10% of the minor axis length to apply a pressure on the crystalline lens. The change in the weight at this time was measured with the electronic weighing scale, and the weight was divided by the moving distance measured with the height gauge. The resulting value was considered to be hardness. A larger value represents more hardness.
For statistical analysis of the body weight, tear volume, and crystalline lens hardness, a significant difference test was performed using the Dunnett method in terms of each group with respect to the smoking group.

Another data set concerns crystalline lens. The data set is described as follows: Smoking rat presbyopia model (Example 3): crystalline lens hardness. Format: in vivo, Sprague-Dawley rats. Conditions: smoking rats, 300 μM PBS solution, 5 μL instilled 4 times per day for 11 days; smoking group 1.04±0.05, non-smoking 0.75±0.04. The procedure:
Six-week-old male Sprague-Dawley rats were subjected to smoking treatment to develop dry-eye, presbyopia models. Specifically, a treatment in which mainstream smoke (300 mL) was added to a rat-containing chamber 6 times at 30-minute intervals was performed for 12 days to induce keratoconjunctival epithelial damage. […] Each group consisted of 4 animals (8 eyes). After the 11-day smoking treatment, the body weight, tear volume, fluorescent staining score, and crystalline lens hardness were measured. • 0: not stained (no punctate fluorescence) • 1: weak punctate fluorescence • 2: relatively intense punctate fluorescence • 3: strong punctate fluorescence The crystalline lens hardness was measured by combining an electronic weighing scale and height gauge. A crystalline lens whose minor axis length had been previously measured was placed on an electronic weighing scale, and the weight was set to 0. The handle of a height gauge was used above the crystalline lens to allow the end portion to be in contact with the crystalline lens. Further using the handle, the end portion was lowered about 5 to 10% of the minor axis length to apply a pressure on the crystalline lens. The change in the weight at this time was measured with the electronic weighing scale, and the weight was divided by the moving distance measured with the height gauge. The resulting value was considered to be hardness. A larger value represents more hardness. For statistical analysis of the body weight, tear volume, and crystalline lens hardness, a significant difference test was performed using the Dunnett method in terms of each group with respect to the smoking group.

Data set [4] can be described thus: Measurement of radical scavenging activity (galvinoxyl radical, stopped flow method). In kind it is biochemical. To be noted: acetonitrile, deaerated with argon, absorbance at 428 nm.
Protocol: Unlike active oxygen, a galvinoxyl radical (GO•), which is a relatively stable organic oxygen radical having a characteristic peak absorption at 428 nm, may be used to perform kinetic analysis in terms of the radical scavenging ability of antioxidants using ultraviolet visible spectroscopy.
In this experiment, the radical scavenging rate was measured by a stopped flow method. The following reagent was used: • Acetonitrile (Nacalai Tesque, Inc., 00433-95); and • Galvinoxyl Radical (Aldrich, G30-7).
A solution of GO• in acetonitrile (about 2.4×10^−6 M) was bubbled with argon for 7 minutes to remove molecular oxygen. […] Subsequently, the acetonitrile solutions of GO• and the compounds were simultaneously mixed to measure changes in the peak absorption of GO• (at 428 nm) over time by a stopped flow method.
Under conditions in which the concentration of each antioxidant is 10 times or more than that of GO• ([Antioxidant agent]>10[GO•]), the reduction in the absorbance at 428 nm derived from GO• follows the pseudo-first-order kinetics (equation (1)) with respect to the concentration of each antioxidant agent (antioxidant): −d[GO•]/dt=kobs[GO•] […] Integration of both sides of equation (1) leads to equation (2): ln([GO•]/[GO•]0)=−kobst (2), wherein [GO•]o is a concentration of GO• when t=0. […]
The subject of data set [5] is keratoconjunctival epithelial damage caused by dry eye. Put plainly: Therapeutic efficacy test using smoking rat (Example 5), comparison with Diquas. Format: in vivo, Sprague-Dawley rats. The procedure:
In this experiment, both eyes of each animal were used. The same drug solution was administered to both eyes of each animal, and a comparison was made among groups. Six-week-old male Sprague-Dawley rats were subjected to smoking treatment to develop dry-eye models. Specifically, a treatment in which mainstream smoke (300 mL) was added to a rat-containing chamber 6 times at 30-minute intervals was performed for 12 days to induce a keratoconjunctival epithelial damage. […] The tear volume and fluorescent staining score were measured in accordance with the method described in Example 3. For statistical analysis, a significant difference test was performed using the Dunnett method in terms of each group with respect to the smoking group.

Data set [6] can be described thus: Stability test at 25° C. and 60% RH, amount by HPLC. In kind it is physicochemical. Conditions: 25° C. 60% RH; for amount of compound remaining, average: average of three runs; for amount of compound remaining, single runs: first/second/third time. The procedure:
After a constant period of time, the amount of each compound was measured by HPLC to evaluate the stability. The amount of the compound was calculated in accordance with: (The amount of compound after a constant period of time)/(the amount of compound at the time when the test was initiated)×100(%).

The mark [7] stands for this setting: 10 mM solution (10% DMSO in water), 1 week.
[8] abbreviates: 10 mM solution (10% DMSO in water), 2 weeks.
Where [9] appears, read: 10 mM solution (10% DMSO in water), 1 day.
Where [10] appears, read: 10 mM solution (10% DMSO in water), 2 days.
The mark [11] stands for this setting: 10 mM solution (10% DMSO in water), 3 days.

Where “and” joins values, the source holds several entries; their conditions need not be identical. Identical values can stand only once.

With `C/C(=C(/C)c1ccc(O)c(O)c1)c1cc(O)cc(O)c1` [DHR, (E)-4-[3-(3,5-dihydroxyphenyl)but-2-en-2-yl]benzene-1,2-diol], the “radical generation (amount of tyrosine radical, ESR)” value in data set [1] is “reduced radical generation in a concentration-dependent manner”. Moreover, the “radical generation (amount of hydroxyl radical, ESR)” value in data set [2] is reported as “reduced radical generation in a concentration-dependent manner”. Besides, the “average fluorescein score (fluorescent staining score)” value in data set [3] (smoking group 3.7±1.0, non-smoking 0.8±1.0) stood at 1.5±0.5. Also, the “tear volume (cotton thread test, length of wet portion)” value in data set [3] came to 13.8±11.1 mm. The “crystalline lens elasticity (hardness; larger value = harder)” value in the data set on crystalline lens was found to be 0.75±0.05. Moreover, the “radical scavenging activity (constant kHT of rate of hydrogen transfer to GO•)” value in data set [4] amounted to 2300 M⁻¹ s⁻¹.

`O=c1ccn([C@@H]2O[C@H](COP(=O)(O)OP(=O)(O)OP(=O)(O)OP(=O)(O)OC[C@H]3O[C@@H](n4ccc(=O)[nH]c4=O)[C@H](O)[C@@H]3O)[C@@H](O)[C@H]2O)c(=O)[nH]1` [diquafosol sodium, reference compound] returned a body weight in data set [5] (smoking rats after 11-day treatment, instilled 5 μL 4 times per day, smoking group 280.0±5.8) of 273.8 ± 4.3 g. Moreover, the “average fluorescein score (fluorescent staining score)” value in data set [5] (smoking rats, DR 300 μM in PBS or Diquas 3%, 5 μL 4 times per day for 11 days, smoking group 4.6±1.2, non-smoking 1.2±1.2) turned out to be 4.3±1.6. In data set [5] (smoking rats, DR 300 μM in PBS or Diquas 3%, 5 μL 4 times per day for 11 days, smoking group 11.3±9.0, non-smoking 17.6±9.1), the “tear volume (cotton thread test)” value came to 11.0±6.5 mm.

As to `Oc1ccc(/C=C/c2cc(O)cc(O)c2)cc1` [Resveratrol, trans-1,2-(3,4′,5-trihydroxydiphenyl)ethylene, reference compound], the “radical generation (amount of tyrosine radical, ESR)” value in data set [1] is “reduced radical generation in a concentration-dependent manner”. Besides, the “radical generation (amount of hydroxyl radical, ESR)” value in data set [2] is reported as “reduced radical generation in a concentration-dependent manner”. The “tear volume (cotton thread test, length of wet portion)” value in data set [3] worked out at 6.9±4.3 mm. The “crystalline lens elasticity (hardness; larger value = harder)” value with crystalline lens is 0.87±0.06. The “amount of compound remaining, average” value came out at 82% in data set [6] (setting [7]); 64% in data set [6] (setting [8]); 98% in data set [6] (setting [9]); 95% in data set [6] (setting [10]); 91% in data set [6] (setting [11]); 99% in data set [6] (solid, 1 week). For the same compound, the “amount of compound remaining, average” value was 95% in data set [6] (solid, 2 weeks); 91% in data set [6] (solid, 3 weeks); 86% in data set [6] (solid, 4 weeks). Besides, the “amount of compound remaining, single runs” value in data set [6] (setting [7]) was 80% and 82% and 85%; in data set [6] (setting [8]), 59% and 65% and 68%; in data set [6] (setting [9]), 98% and 99% and 96%; in data set [6] (setting [10]), 95% and 96%; in data set [6] (setting [11]), 90% and 93%; in data set [6] (solid, 1 week), 100% and 101% and 97%. Besides, the “amount of compound remaining, single runs” value in data set [6] (solid, 2 weeks) was 96% and 94%; in data set [6] (solid, 3 weeks) it was 91% and 90% and 92%; in data set [6] (solid, 4 weeks) it was 88% and 86% and 85%.
